Measured values published in patent US20260355188A1, “COMBINATION THERAPIES USING PRMT5 INHIBITORS AND BCL-2 FAMILY INHIBITORS FOR THE TREATMENT OF CANCER” (MIRATI THERAPEUTICS, INC., priority 2022, published 2026).

Assays:
LU99 xenograft tumors [1] = assay: In vivo combination study (LU99 model), Example 1; set-up: species or system female nu/nu mice; details: MRTX1719, ABT-263, ABT-199 each 100 mg/kg PO QD, alone or combined
Excerpt: (§1) Immunodeficient female nu/nu mice were implanted with 5×10^6 LU99 cancer cells in 50% Matrigel. Tumor volume measurements were collected using calipers and determined utilizing the formula 0.5×L×W^2 in which L refers to length and W refers to width of each tumor. When tumors reached approximately 125-150 mm^3, animals were randomized to receive A) vehicle, B) a PRMT5 inhibitor, C) navitoclax (ABT-263), D) venetoclax (ABT-199), E) A-1331852, F) the PRMT5 inhibitor and navitoclax, F) the PRMT5 inhibitor and venetoclax, or G) the PRMT5 inhibitor and A-1331852 all administered orally (PO) with the indicated dose and schedule for 20-34 days. Tumor volume was measured twice a week (n=5/treatment group). Average tumor volume and standard error of the mean was calculated and plotted at each study day using GraphPad Prism.
The PRMT5 inhibitor was MRTX1719 administered at 100 mg/kg once a day (QD). MRTX1719 is (2M)-2-(4-(4-(aminomethyl)-1-oxo-1,2-dihydrophthalazin-6-yl)-1-methyl-1H-pyrazol-5-yl)-4-chloro-6-cyclopropoxy-3-fluorobenzonitrile, disclosed as Example 16-8 at p. 307 of the international patent publication No. WO 2021/050915 A1, published 18 Mar. 2021, incorporated by reference in its entirety.
The BCL-2 family inhibitors used in this example, ABT-199 (venetoclax) and ABT-263 (navitoclax), were administered at 100 mg/kg once a day (QD) and supplied by Selleck Chemicals (Houston, TX).

LU99 xenograft tumors [2] = assay: In vivo combination study (LU99 model), Example 4; set-up: species or system female nu/nu mice; details: MRTX1719 100 mg/kg PO QD, A-1331852 25 mg/kg PO BID, alone or combined
Excerpt: as §1
Example 4 was carried out according to the in vivo study procedure described above in Example 1.
The PRMT5 inhibitor was MRTX1719 administered at 100 mg/kg once a day (QD). MRTX1719 is (2M)-2-(4-(4-(aminomethyl)-1-oxo-1,2-dihydrophthalazin-6-yl)-1-methyl-1H-pyrazol-5-yl)-4-chloro-6-cyclopropoxy-3-fluorobenzonitrile, disclosed as Example 16-8 at p. 307 of the international patent publication No. WO 2021/050915 A1, published 18 Mar. 2021, incorporated by reference in its entirety. The BCL-2 family inhibitor, A-1331852 was administered at 25 mg/kg twice a day (BID) and synthesized at Wuxi AppTec (Wuhan, China).

Mero83 = assay: In vitro combination synergy, Mero83 (Cell-Titer Glo); format: cell-based; details: combined with exemplary PRMT5 inhibitor, 120 h, sum of Loewe, Bliss, HSA and ZIP scores
Description: (§2) A panel of MTAP-deleted cancer cell lines was assembled to determine whether combining BCL-2 family inhibitors with exemplary PRMT5 inhibitors disclosed herein results in synergistic activity.
(§3) [Assays for determining the synergy score for the pairwise combinations for each cell line were performed in triplicate. 384 or 96-well plates plus additional wells of a separate 384 or 96-well control plate for determining baseline luminescence were seeded with cells of a particular MTAP-deleted cell line in a suitable growth medium for that cell line, e.g., RPMI 1640 medium supplemented with 10% FBS and any cell line specific reagents needed for growth. The plates were incubated overnight at 37 °C in a 5% CO2 atmosphere.
(§4) To each of the designated baseline wells, Cell-Titer Glo reagent (CTG; Promega Corporation) was added to each well and the plates were incubated for 20 min shaking at room temperature. Baseline luminescence was quantitated using a BMG ClarioStar multimode plate reader according to the manufacturer's instructions.
(§5) A series of 1000× drug dilutions in 100% DMSO was prepared that includes a 9-point single agent 3-fold dilution of the exemplary PRMT5 inhibitor (of the type described in WO2021/050915) with a top dose of 3000 nM (and a 6-point single agent 5-fold dilution of the BCL-2 family inhibitor with a top dose of 3000 nM as reference standards.
(§6) A 10× intermediate dosing plate was prepared in serum free medium that contains arrayed single agent dilutions of exemplary PRMT5 inhibitor (of the type described in WO2021/050915) and or the BCL-2 family inhibitor. In addition, a matrix of 54 dilution combinations of exemplary PRMT5 inhibitor (of the type described in WO2021/050915) and the BCL-2 family inhibitor was prepared as test samples.
(§7) To each corresponding well of the 384-well plates seeded with the appropriate cell line above, 10× single agent and the 54 combinations of the dose matrix was added and the plates were incubated for 120 hours at 37 °C in 5% CO2 atmosphere. Cell-Titer Glo reagent (CTG) was added to each test well, the plates were incubated for 20 min shaking at room temperature, and luminescence was quantitated using a BMG ClarioStar multimode plate reader according to the manufacturer's instructions. To normalize test samples, the determined baseline luminescence was subtracted from each test sample prior to analysis and mean values are calculated from replicate samples.
(§8) The output of the data from each mathematical model is the assignment of a relative synergy score. The data reported in Table 6 are the aggregate sum of the Loewe additivity, Bliss independence, Highest Single Agent and ZIP synergy scores (“Composite Synergy Score”).

SU8686 = assay: In vitro combination synergy, SU8686 (Cell-Titer Glo); format: cell-based; details: combined with exemplary PRMT5 inhibitor, 120 h, sum of Loewe, Bliss, HSA and ZIP scores
Description: as §2, §3, §4, §5, §6, §7, §8

RT4 = assay: In vitro combination synergy, RT4 (Cell-Titer Glo); format: cell-based; details: combined with exemplary PRMT5 inhibitor, 120 h, sum of Loewe, Bliss, HSA and ZIP scores
Description: as §2, §3, §4, §5, §6, §7, §8

H2228 = assay: In vitro combination synergy, H2228 (Cell-Titer Glo); format: cell-based; details: combined with exemplary PRMT5 inhibitor, 120 h, sum of Loewe, Bliss, HSA and ZIP scores
Description: as §2, §3, §4, §5, §6, §7, §8

H2052 = assay: In vitro combination synergy, H2052 (Cell-Titer Glo); format: cell-based; details: combined with exemplary PRMT5 inhibitor, 120 h, sum of Loewe, Bliss, HSA and ZIP scores
Description: as §2, §3, §4, §5, §6, §7, §8

H2452 = assay: In vitro combination synergy, H2452 (Cell-Titer Glo); format: cell-based; details: combined with exemplary PRMT5 inhibitor, 120 h, sum of Loewe, Bliss, HSA and ZIP scores
Description: as §2, §3, §4, §5, §6, §7, §8

SW1573 = assay: In vitro combination synergy, SW1573 (Cell-Titer Glo); format: cell-based; details: combined with exemplary PRMT5 inhibitor, 120 h, sum of Loewe, Bliss, HSA and ZIP scores
Description: as §2, §3, §4, §5, §6, §7, §8

Mero84 = assay: In vitro combination synergy, Mero84 (Cell-Titer Glo); format: cell-based; details: combined with exemplary PRMT5 inhibitor, 120 h, sum of Loewe, Bliss, HSA and ZIP scores
Description: as §2, §3, §4, §5, §6, §7, §8

HCC4006 = assay: In vitro combination synergy, HCC4006 (Cell-Titer Glo); format: cell-based; details: combined with exemplary PRMT5 inhibitor, 120 h, sum of Loewe, Bliss, HSA and ZIP scores
Description: as §2, §3, §4, §5, §6, §7, §8

H1437 = assay: In vitro combination synergy, H1437 (Cell-Titer Glo); format: cell-based; details: combined with exemplary PRMT5 inhibitor, 120 h, sum of Loewe, Bliss, HSA and ZIP scores
Description: as §2, §3, §4, §5, §6, §7, §8

H1650 = assay: In vitro combination synergy, H1650 (Cell-Titer Glo); format: cell-based; details: combined with exemplary PRMT5 inhibitor, 120 h, sum of Loewe, Bliss, HSA and ZIP scores
Description: as §2, §3, §4, §5, §6, §7, §8

Miapaca2 = assay: In vitro combination synergy, Miapaca2 (Cell-Titer Glo); format: cell-based; details: combined with exemplary PRMT5 inhibitor, 120 h, sum of Loewe, Bliss, HSA and ZIP scores
Description: as §2, §3, §4, §5, §6, §7, §8

## Cn1ncc(-c2ccc3c(=O)[nH]nc(CN)c3c2)c1-c1c(F)c(Cl)cc(OC2CC2)c1C#N (atropisomer, axis not shown; (M)) [MRTX1719, (2M)-2-(4-(4-(aminomethyl)-1-oxo-1,2-dihydrophthalazin-6-yl)-1-methyl-1H-pyrazol-5-yl)-4-chloro-6-cyclopropoxy-3-fluorobenzonitrile]
LU99 xenograft tumors [1]; day 3
  Average Tumor Volume: 215 mm^3
LU99 xenograft tumors [1]; day 6
  Average Tumor Volume: 236 mm^3
LU99 xenograft tumors [1]; day 10
  Average Tumor Volume: 236 mm^3
LU99 xenograft tumors [1]; day 13
  Average Tumor Volume: 260 mm^3
LU99 xenograft tumors [1]; day 17
  Average Tumor Volume: 282 mm^3
LU99 xenograft tumors [1]; day 20
  Average Tumor Volume: 302 mm^3
LU99 xenograft tumors [1]; day −1
  Average Tumor Volume: 153 mm^3
LU99 xenograft tumors [2]; day 2
  Average Tumor Volume: 221 mm^3
LU99 xenograft tumors [2]; day 6
  Average Tumor Volume: 229 mm^3
LU99 xenograft tumors [2]; day 9
  Average Tumor Volume: 232 mm^3
LU99 xenograft tumors [2]; day 14
  Average Tumor Volume: 268 mm^3
LU99 xenograft tumors [2]; day 16
  Average Tumor Volume: 296 mm^3
LU99 xenograft tumors [2]; day 20
  Average Tumor Volume: 360 mm^3
LU99 xenograft tumors [2]; day −1
  Average Tumor Volume: 137 mm^3

## Cc1c(-c2ccc(N3CCc4cccc(C(=O)Nc5nc6ccccc6s5)c4C3)nc2C(=O)O)cnn1CC12CC3CC(CC(C3)C1)C2 [A-1331852]
Mero83
  Composite Synergy Score: 11
SU8686
  Composite Synergy Score: 50
RT4
  Composite Synergy Score: 40
H2228
  Composite Synergy Score: 36
H2052
  Composite Synergy Score: 12
H2452
  Composite Synergy Score: 42
SW1573
  Composite Synergy Score: 50
Mero84
  Composite Synergy Score: 0
HCC4006
  Composite Synergy Score: 63
LU99 xenograft tumors [2]; day 2
  Average Tumor Volume: 217 mm^3
LU99 xenograft tumors [2]; day 6
  Average Tumor Volume: 393 mm^3
LU99 xenograft tumors [2]; day 9
  Average Tumor Volume: 547 mm^3
LU99 xenograft tumors [2]; day 14
  Average Tumor Volume: 960 mm^3
LU99 xenograft tumors [2]; day 16
  Average Tumor Volume: 1228 mm^3
LU99 xenograft tumors [2]; day 20
  Average Tumor Volume: 1331 mm^3
LU99 xenograft tumors [2]; day −1
  Average Tumor Volume: 137 mm^3
H1437
  Composite Synergy Score: 36
H1650
  Composite Synergy Score: 62
Miapaca2
  Composite Synergy Score: 70

## CC1(C)CCC(c2ccc(Cl)cc2)=C(CN2CCN(c3ccc(C(=O)NS(=O)(=O)c4ccc(N[C@H](CCN5CCOCC5)CSc5ccccc5)c(S(=O)(=O)C(F)(F)F)c4)cc3)CC2)C1 [ABT-263, navitoclax]
Mero83
  Composite Synergy Score: −26
SU8686
  Composite Synergy Score: 12
LU99 xenograft tumors [1]; day 3
  Average Tumor Volume: 236 mm^3
LU99 xenograft tumors [1]; day 6
  Average Tumor Volume: 359 mm^3
LU99 xenograft tumors [1]; day 10
  Average Tumor Volume: 558 mm^3
LU99 xenograft tumors [1]; day 13
  Average Tumor Volume: 737 mm^3
LU99 xenograft tumors [1]; day 17
  Average Tumor Volume: 1042 mm^3
LU99 xenograft tumors [1]; day 20
  Average Tumor Volume: 1237 mm^3
LU99 xenograft tumors [1]; day −1
  Average Tumor Volume: 153 mm^3
RT4
  Composite Synergy Score: 24
H2228
  Composite Synergy Score: 24
H2052
  Composite Synergy Score: 11
H2452
  Composite Synergy Score: −20
SW1573
  Composite Synergy Score: 14
Mero84
  Composite Synergy Score: −4
HCC4006
  Composite Synergy Score: 23
H1437
  Composite Synergy Score: 13
H1650
  Composite Synergy Score: 32
Miapaca2
  Composite Synergy Score: 16
